pIC50: −log10 of the molar value. Counter-ions that a name gives are not always drawn.
target: T1, human HPK1 (MAP4K1) (Homo sapiens, UniProt Q92918); assay: Biochemical assay for activity against HPK1 (ADP-Glo, MBP substrate); details: recombinant human HPK1 kinase domain, 1 nM enzyme, ADP-Glo luminescence
T1 construct: Recombinant human HPK1 kinase domain was obtained from ThermoFisher (Cat. #PV6357) and SignalChem (Cat. #M23-11G); purchased ThermoFisher; SignalChem PV6357; M23-11G
T1 sequence (Q92918 17-274 limits assumed): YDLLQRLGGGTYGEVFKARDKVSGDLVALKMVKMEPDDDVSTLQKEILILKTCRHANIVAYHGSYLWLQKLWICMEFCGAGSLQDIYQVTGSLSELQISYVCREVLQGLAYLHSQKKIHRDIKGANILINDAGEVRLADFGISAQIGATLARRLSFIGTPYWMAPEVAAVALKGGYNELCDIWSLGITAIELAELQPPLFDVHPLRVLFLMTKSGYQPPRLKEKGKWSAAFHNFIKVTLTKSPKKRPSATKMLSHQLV
Procedure, shortened: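 Recombinant human HPK1 kinase domain (1 nM solution) preincubated 15 min at room temperature with compounds in pH 7.5 HEPES buffer with NaCl, TCEP, MgCl2, Tween-20, BSA. MBP substrate with ATP added, reaction run 2 h at room temperature. ADP formation read by ADP-Glo luminescence to give IC50.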

SMILES	pIC50
COc1cc2c(cc1Nc1ncc3c(C)nn(C[C@@H]4CCCN4S(C)(=O)=O)c3n1)CN(C)CC2 [Example 116, (S)-6-methoxy-2-methyl-N-(3-methyl-1-((1-(methylsulfonyl)pyrrolidin-2-yl)methyl)-1H-pyrazolo[3,4-d]pyrimidin-6-yl)-1,2,3,4-tetrahydroisoquinolin-7-amine]	6.60 to 7.00
COc1cc2c(cc1Nc1ncc3cnn(CC[C@H](C)O)c3n1)CN(C)CC2 [Example 84, (S)-4-(6-((6-methoxy-2-methyl-1,2,3,4-tetrahydroisoquinolin-7-yl)amino)-1H-pyrazolo[3,4-d]pyrimidin-1-yl)butan-2-ol]	> 7.00
COc1cc2c(cc1Nc1ncc3cnn([C@H]4CC[C@H](NC(C)=O)CC4)c3n1)CN(C)CC2 [Example 69, trans-N-[4-[6-[(6-methoxy-2-methyl-3,4-dihydro-1H-isoquinolin-7-yl)amino]pyrazolo[3,4-d]pyrimidin-1-yl]cyclohexyl]acetamide]	> 7.00
COc1cc2c(cc1Nc1ncc3cnn([C@H]4CC[C@H](C(N)=O)C4)c3n1)CN(C)CC2 (racemic) [Example 42, rac-(1S,3S)-3-(6-((6-methoxy-2-methyl-1,2,3,4-tetrahydroisoquinolin-7-yl)amino)-1H-pyrazolo[3,4-d]pyrimidin-1-yl)cyclopentane-1-carboxamide]	> 7.00
COc1cc2c(cc1Nc1ncc3cnn([C@@H]4CCC[C@H](CO)C4)c3n1)CN(C)CC2 (relative stereo) [Example 22, cis-3-(6-((6-methoxy-2-methyl-1,2,3,4-tetrahydroisoquinolin-7-yl)amino)-1H-pyrazolo[3,4-d]pyrimidin-1-ylcyclohexyl)methanol]	> 7.00
COc1nc2c(cc1Nc1ncc3cnn([C@H]4CC[C@H](O)CC4)c3n1)CN(C)CC2 [Example 187, (1r,4r)-4-(6-((2-methoxy-6-methyl-5,6,7,8-tetrahydro-1,6-naphthyridin-3-yl)amino)-1H-pyrazolo[3,4-d]pyrimidin-1-yl)cyclohexan-1-ol]	> 7.00
COc1cc2c(cc1Nc1ncc3cnn(C[C@H]4C[C@@H](NS(C)(=O)=O)C4)c3n1)CN(C)CC2 [Example 120, cis N-(3-((6-((6-methoxy-2-methyl-1,2,3,4-tetrahydroisoquinolin-7-yl)amino)-1H-pyrazolo[3,4-d]pyrimidin-1-yl)methyl)cyclobutyl)methanesulfonamide trifluoroacetate]	> 7.00
COc1cc2c(cc1Nc1ncc3cnn(C[C@@H]4CCCN4C(=O)CO)c3n1)CN(C)CC2 [Example 114, (S)-2-hydroxy-1-(2-((6-((6-methoxy-2-methyl-1,2,3,4-tetrahydroisoquinolin-7-yl)amino)-1H-pyrazolo[3,4-d]pyrimidin-1-yl)methyl)230yrrolidine-1-yl)ethan-1-one 2,2,2-trifluoroacetate]	> 7.00
COc1cc2c(cc1Nc1ncc3cnn([C@H]4C[C@](C)(C(=O)O)C4)c3n1)CN(C)CC2 [Example 71, 3-[6-[(6-methoxy-2-methyl-3,4-dihydro-1H-isoquinolin-7-yl)amino]pyrazolo[3,4-d]pyrimidin-1-yl]-1-methyl-cyclobutanecarboxylic acid]	> 7.00
COc1cc2c(cc1Nc1ncc3cnn(C(C)C)c3n1)CN(C)CC2 [Example 104, N-(1-isopropylpyrazolo[3,4-d]pyrimidin-6-yl)-6-methoxy-2-methyl-3,4-dihydro-1H-isoquinolin-7-amine]	> 7.00
COc1cc2c(cc1Nc1ncc3cnn(C[C@@H]4CCCN4S(C)(=O)=O)c3n1)CN(C)CC2 [Example 111, (S)-6-methoxy-2-methyl-N-(1-((1-(methylsulfonyl)228yrrolidine-2-yl)methyl)-1H-pyrazolo[3,4-d]pyrimidin-6-yl)-1,2,3,4-tetrahydroisoquinolin-7-amine]	> 7.00
CC(C)n1nc(C(F)(F)F)c2cnc(Nc3ccc4c(c3)CN(C)CC4)nc21 [Example 6, N-[1-isopropyl-3-(trifluoromethyl)pyrazolo[3,4-d]pyrimidin-6-yl]-2-methyl-3,4-dihydro-1H-isoquinolin-7-amine]	> 7.00
COc1cc2c(cc1Nc1ncc3cnn([C@H]4CCC[C@H](C(=O)N(C)C)C4)c3n1)CN(C)CC2 (racemic) [Example 59, rac-(trans)-3-(6-((6-methoxy-2-methyl-1,2,3,4-tetrahydroisoquinolin-7-yl)amino)-1H-pyrazolo[3,4-d]pyrimidin-1-yl)-N,N-dimethylcyclohexane-1-carboxamide]	> 7.00
COCCS(=O)(=O)NC[C@H]1C[C@H](n2ncc3cnc(Nc4cc5c(cc4OC)CCN(C)C5)nc32)C1 [Example 124, 2-methoxy-N-(((1r,3r)-3-(6-((6-methoxy-2-methyl-1,2,3,4-tetrahydroisoquinolin-7-yl)amino)-1H-pyrazolo[3,4-d]pyrimidin-1-yl)cyclobutyl)methyl)ethane-1-sulfonamide]	> 7.00
COc1cc2c(cc1Nc1ncc3cnn(C[C@H](C)NS(C)(=O)=O)c3n1)CN(C)CC2 [Example 94, N-[(1S)-2-[6-[(6-methoxy-2-methyl-3,4-dihydro-1H-isoquinolin-7-yl]amino]pyrazolo[3,4-d]pyrimidin-1-yl]-1-methyl-ethyl]methanesulfonamide]	6.60 to 7.00
CCOC(=O)[C@@H]1CCC[C@H](n2ncc3cnc(Nc4cc5c(cc4OC)CCN(C)C5)nc32)C1 (relative stereo) [Example 21, ethyl cis-3-(6-((6-methoxy-2-methyl-1,2,3,4-tetrahydroisoquinolin-7-yl)amino)-1H-pyrazolo[3,4-d]pyrimidin-1-yl)cyclohexane-1-carboxylate]	> 7.00
COc1cc2c(cc1Nc1ncc3cnn(C4CCCN(S(C)(=O)=O)C4)c3n1)CN(C)CC2 (stereo not drawn) [Example 108, 6-methoxy-2-methyl-N-(1-(1-(methylsulfonyl)piperidin-3-yl)-1H-pyrazolo[3,4-d]pyrimidin-6-yl)-1,2,3,4-tetrahydroisoquinolin-7-amine]	> 7.00

More lines, now with the values ahead:

pIC50	SMILES
> 7.00	COc1cc2c(cc1Nc1ncc3cnn(C[C@@H]4CCCN4C(=O)C(F)F)c3n1)CN(C)CC2 [Example 186, (S)-2,2-difluoro-1-(2-((6-((6-methoxy-2-methyl-1,2,3,4-tetrahydroisoquinolin-7-yl)amino)-1H-pyrazolo[3,4-d]pyrimidin-1-yl)methyl)pyrrolidin-1-yl)ethan-1-one]
> 7.00	COc1cc2c(cc1Nc1ncc3cnn(C[C@@H]4[C@H]5C[C@H]5CN4C(C)=O)c3n1)CN(C)CC2 [Example 220, 1-[(1S,2S,5R)-2-[[6-[(6-methoxy-2-methyl-3,4-dihydro-1H-isoquinolin-7-yl)amino]pyrazolo[3,4-d]pyrimidin-1-yl]methyl]-3-azabicyclo[3.1.0]hexan-3-yl]ethanone]
> 7.00	COc1cc2c(cc1Nc1ncc3c(C)nn([C@@H]4CCC[C@@H](C(N)=O)C4)c3n1)CN(C)CC2 [Example 56, (1R,3R)-3-(6-((6-methoxy-2-methyl-1,2,3,4-tetrahydroisoquinolin-7-yl)amino)-3-methyl-1H-pyrazolo[3,4-d]pyrimidin-1-yl)cyclohexane-1-carboxamide]
> 7.00	CN1CCc2ccc(Nc3ncc4cnn([C@H]5CCCNC5)c4n3)cc2C1 [Example 17, (S)-2-methyl-N-(1-(piperidin-3-yl)-1H-pyrazolo[3,4-d]pyrimidin-6-yl)-1,2,3,4-tetrahydroisoquinolin-7-amine hydrochloride]
> 7.00	CC(=O)N1CCC[C@H]1Cn1ncc2cnc(Nc3cc4c(cc3C)CCN(C)C4)nc21 [Example 183, (S)-1-(2-((6-((2,6-dimethyl-1,2,3,4-tetrahydroisoquinolin-7-yl)amino)-1H-pyrazolo[3,4-d]pyrimidin-1-yl)methyl)pyrrolidin-1-yl)ethan-1-one]
> 7.00	COc1cc2c(cc1Nc1ncc3cnn(C[C@@H]4[C@@H](F)CCN4C(C)=O)c3n1)CN(C)CC2 [Example 213, 1-[(2R,3S)-3-fluoro-2-[[6-[(6-methoxy-2-methyl-3,4-dihydro-1H-isoquinolin-7-yl)amino]pyrazolo[3,4-d]pyrimidin-1-yl]methyl]pyrrolidin-1-yl]ethanone]
> 7.00	CN1CCc2ccc(Nc3ncc4cnn(CCN5CCCS5(=O)=O)c4n3)cc2C1 [Example 4, N-[1-[2-(1,1-dioxo-1,2-thiazolidin-2-yl)ethyl]pyrazolo[3,4-d]pyrimidin-6-yl]-2-methyl-3,4-dihydro-1H-isoquinolin-7-amine trifluoroacetate]
> 7.00	COc1nc2c(cc1Nc1ncc3cnn(C[C@@H]4C[C@H](F)CN4C(C)=O)c3n1)CN(C)CC2 [Example 212, 1-[(2S,4S)-4-fluoro-2-[[6-[(2-methoxy-6-methyl-7,8-dihydro-5H-1,6-naphthyridin-3-yl)amino]pyrazolo[3,4-d]pyrimidin-1-yl]methyl]pyrrolidin-1-yl]ethenone]
> 7.00	COc1nc2c(cc1Nc1ncc3cnn(C[C@@H]4CC[C@H](C)N4C(C)=O)c3n1)CN(C)CC2 [Example 172, 1-[(2S,5S)-2-[[6-[(2-methoxy-6-methyl-7,8-dihydro-5H-1,6-naphthyridin-3-yl)amino]pyrazolo[3,4-d]pyrimidin-1-yl]methyl]-5-methyl-pyrrolidin-1-yl]ethenone]
> 7.00	COc1cc2c(cc1Nc1ncc3cnn([C@H]4CC[C@H](O)CC4)c3n1)CN(CC(F)F)CC2 [Example 154, trans-4-(6-((2-(2,2-difluoroethyl)-6-methoxy-1,2,3,4-tetrahydroisoquinolin-7-yl)amino)-1H-pyrazolo[3,4-d]pyrimidin-1-yl)cyclohexan-1-ol]

From patent US11918582B2 (RAPT Therapeutics, Inc., priority 2021, dated 2024)
